Laboratory results published in US9695155B2, “Herbicidal substituted pyrimidinyloxy benzene compounds” (E. I. DU PONT DE NEMOURS AND COMPANY, priority 2013, dated 2017).

Key:
[1] = system: yellow nutsedge; assay: Test C preemergence; type: in vivo, Cyperus esculentus; settings: Cyperus, pre-emergence, preemergence, scale 0 (no effect) to 100 (complete control), read-out: Nutsedge, Yellow plant response rating
Procedure, shortened: (§1)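 Whole-plant greenhouse test with surfactant-containing solvent formulation, applied preemergence to sown loam–sand pots or postemergence to 2–18 cm plants. Scored by eye 13 to 15 days on, 0–100 scale.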

[2] = system: wild oat; assay: Test C postemergence; type: in vivo, Avena fatua; settings: Avena fatua, post-emergence
Procedure, shortened: as §1

[3] = system: yellow nutsedge; assay: Test C postemergence; type: in vivo, Cyperus esculentus; settings: Cyperus, post-emergence
Procedure, shortened: as §1

[4] = system: Italian ryegrass; assay: Test C postemergence; type: in vivo, Lolium multiflorum; settings: Lolium multiflorum, post-emergence
Procedure, shortened: as §1

[5] = system: rice; assay: Test B flooded paddy test; type: in vivo, Oryza sativa; settings: Oryza sativa; Flood, 250 g ai/ha; 0 to 100 scale where 0 is no effect and 100 is complete control; read-out: Plant response rating, Rice
Procedure, shortened: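 Flooded to 3 cm at the 2-leaf stage, pots received compound through the paddy water and were kept at that depth under greenhouse conditions. After 13–15 days, effect was rated by eye relative to controls, 0 = none and 100 = complete control.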

[6] = system: lambsquarters; assay: Test C postemergence; type: in vivo, Chenopodium album; settings: Chenopodium album, post-emergence
Procedure, shortened: as §1

[7] = system: soybean; assay: Test C preemergence; type: in vivo, Glycine max; settings: Glycine max, pre-emergence
Procedure, shortened: as §1

[8] = system: ragweed; assay: Test C postemergence; type: in vivo, Ambrosia elatior; settings: Ambrosia artemisiifolia, post-emergence
Procedure, shortened: as §1

[9] = system: wheat, winter; assay: Test C postemergence; type: in vivo, Triticum aestivum; settings: Triticum aestivum, post-emergence
Procedure, shortened: as §1

[10] = system: giant foxtail; assay: Test A preemergence; type: in vivo, Setaria faberii; settings: Setaria faberi, pre-emergence, 240 h
Procedure, shortened: (§2)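 Scoring: eye-based comparison with untreated controls, 0 for no effect through 100 for complete control, at about day 10. Treatments: directed soil spray preemergence; foliar spray postemergence on 2–10 cm plants at the one- to two-leaf stage. Medium: loam soil with sand.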

[11] = system: blackgrass; assay: Test C postemergence; type: in vivo, Alopecurus myosuroides; settings: Alopecurus myosuroides, post-emergence
Procedure, shortened: as §1

[12] = system: pigweed; assay: Test C postemergence; type: in vivo, Amaranthus retroflexus; settings: Amaranthus retroflexus, post-emergence
Procedure, shortened: as §1

[13] = system: corn; assay: Test A preemergence; type: in vivo, Zea mays; settings: Zea mays, pre-emergence, 240 h
Procedure, shortened: as §2

[14] = system: velvetleaf; assay: Test C preemergence; type: in vivo, Abutilon theophrasti; settings: Abutilon theophrasti, pre-emergence
Procedure, shortened: as §1

[15] = system: pigweed; assay: Test C preemergence; type: in vivo, Amaranthus retroflexus; settings: Amaranthus retroflexus, pre-emergence
Procedure, shortened: as §1

N#Cc1cccc(Oc2ncc(Br)cn2)c1-n1cc(C(F)(F)F)cn1 [Compound 59, 3-[(5-bromo-2-pyrimidinyl)oxy]-2-[4-(trifluoromethyl)-1H-pyrazol-1-yl]benzonitrile]
pest or weed control at 62 g/ha ([1]; 62 g ai/ha): 65%
pest or weed control at 125 g/ha ([1]; 125 g ai/ha): 85%
pest or weed control at 250 g/ha ([1]; 250 g ai/ha): 90%
pest or weed control at 125 g/ha ([2]; 125 g ai/ha, postemergence, read-out: Plant response rating (0 to 100), Oat, Wild): 40%
pest or weed control at 250 g/ha ([2]; 250 g ai/ha, postemergence, read-out: Plant response rating (0 to 100), Oat, Wild): 40%
pest or weed control at 31 g/ha ([2]; Postemergence, 31 g ai/ha, scale 0 to 100 (0 no effect, 100 complete control), 13 to 15 days, read-out: Plant response rating, Oat, Wild): 25%
pest or weed control at 62 g/ha ([2]; Postemergence, 62 g ai/ha, scale 0 to 100 (0 no effect, 100 complete control), read-out: Plant response rating, Oat, Wild): 25%
pest or weed control at 125 g/ha ([3]; 125 g ai/ha, postemergence, read-out: Plant response rating (0 to 100), Nutsedge, Yellow): 5%
pest or weed control at 250 g/ha ([3]; 250 g ai/ha, postemergence, read-out: Plant response rating (0 to 100), Nutsedge, Yellow): 10%
pest or weed control at 31 g/ha ([3]; Postemergence, 31 g ai/ha, scale 0 to 100 (0 no effect, 100 complete control), 13 to 15 days, read-out: Plant response rating, Nutsedge, Yellow): 0%
pest or weed control at 62 g/ha ([3]; Postemergence, 62 g ai/ha, scale 0 to 100 (0 no effect, 100 complete control), read-out: Plant response rating, Nutsedge, Yellow): 5%
pest or weed control at 125 g/ha ([4]; 125 g ai/ha, postemergence, read-out: Plant response rating (0 to 100), Ryegrass, Italian): 10%
pest or weed control at 250 g/ha ([4]; 250 g ai/ha, postemergence, read-out: Plant response rating (0 to 100), Ryegrass, Italian): 30%
pest or weed control at 31 g/ha ([4]; Postemergence, 31 g ai/ha, scale 0 to 100 (0 no effect, 100 complete control), 13 to 15 days, read-out: Plant response rating, Ryegrass, Italian): 5%
pest or weed control at 62 g/ha ([4]; Postemergence, 62 g ai/ha, scale 0 to 100 (0 no effect, 100 complete control), read-out: Plant response rating, Ryegrass, Italian): 10%
plant injury at 250 g/ha [5]: 20%
pest or weed control at 125 g/ha ([6]; 125 g ai/ha, postemergence, read-out: Plant response rating (0 to 100), Lambsquarters): 90%
pest or weed control at 250 g/ha ([6]; 250 g ai/ha, postemergence, read-out: Plant response rating (0 to 100), Lambsquarters): 90%
pest or weed control at 31 g/ha ([6]; Postemergence, 31 g ai/ha, scale 0 to 100 (0 no effect, 100 complete control), 13 to 15 days, read-out: Plant response rating, Lambsquarters): 70%
pest or weed control at 62 g/ha ([6]; Postemergence, 62 g ai/ha, scale 0 to 100 (0 no effect, 100 complete control), read-out: Plant response rating, Lambsquarters): 80%
plant injury at 62 g/ha ([7]; 62 g ai/ha, preemergence, scale 0 (no effect) to 100 (complete control), read-out: Soybean plant response rating): 90%
plant injury at 125 g/ha ([7]; 125 g ai/ha, preemergence, scale 0 (no effect) to 100 (complete control), read-out: Soybean plant response rating): 90%
plant injury at 250 g/ha ([7]; 250 g ai/ha, preemergence, scale 0 (no effect) to 100 (complete control), read-out: Soybean plant response rating): 95%
plant injury at 31 g/ha ([7]; Preemergence, 31 g ai/ha, scale 0 to 100, 0 no effect, 100 complete control, read-out: Plant response rating, Soybean): 85%
pest or weed control at 125 g/ha ([8]; 125 g ai/ha, postemergence, read-out: Plant response rating (0 to 100), Ragweed): 25%
pest or weed control at 250 g/ha ([8]; 250 g ai/ha, postemergence, read-out: Plant response rating (0 to 100), Ragweed): 55%
pest or weed control at 31 g/ha ([8]; Postemergence, 31 g ai/ha, scale 0 to 100 (0 no effect, 100 complete control), 13 to 15 days, read-out: Plant response rating, Ragweed): 10%
pest or weed control at 62 g/ha ([8]; Postemergence, 62 g ai/ha, scale 0 to 100 (0 no effect, 100 complete control), read-out: Plant response rating, Ragweed): 25%
plant injury at 125 g/ha ([9]; 125 g ai/ha, postemergence, read-out: Plant response rating (0 to 100), Wheat): 20%
plant injury at 250 g/ha ([9]; 250 g ai/ha, postemergence, read-out: Plant response rating (0 to 100), Wheat): 20%
plant injury at 31 g/ha ([9]; Postemergence, 31 g ai/ha, scale 0 to 100 (0 no effect, 100 complete control), 13 to 15 days, read-out: Plant response rating, Wheat): 5%
plant injury at 62 g/ha ([9]; Postemergence, 62 g ai/ha, scale 0 to 100 (0 no effect, 100 complete control), read-out: Plant response rating, Wheat): 5%
pest or weed control at 125 g/ha ([10]; 125 g ai/ha, 0 to 100 scale where 0 is no effect and 100 is complete control, read-out: Plant response rating, Foxtail, Giant): 100%
pest or weed control at 500 g/ha ([10]; 500 g ai/ha, 0 to 100 scale, 0 no effect, 100 complete control, approx. 10 days, read-out: Foxtail, Giant plant response rating): 100%
pest or weed control at 125 g/ha ([11]; 125 g ai/ha, postemergence, read-out: Plant response rating (0 to 100), Blackgrass): 25%
pest or weed control at 250 g/ha ([11]; 250 g ai/ha, postemergence, read-out: Plant response rating (0 to 100), Blackgrass): 40%
pest or weed control at 31 g/ha ([11]; Postemergence, 31 g ai/ha, scale 0 to 100 (0 no effect, 100 complete control), 13 to 15 days, read-out: Plant response rating, Blackgrass): 5%
pest or weed control at 62 g/ha ([11]; Postemergence, 62 g ai/ha, scale 0 to 100 (0 no effect, 100 complete control), read-out: Plant response rating, Blackgrass): 10%
pest or weed control at 125 g/ha ([12]; 125 g ai/ha, postemergence, read-out: Plant response rating (0 to 100), Pigweed): 95%
pest or weed control at 250 g/ha ([12]; 250 g ai/ha, postemergence, read-out: Plant response rating (0 to 100), Pigweed): 98%
pest or weed control at 31 g/ha ([12]; Postemergence, 31 g ai/ha, scale 0 to 100 (0 no effect, 100 complete control), 13 to 15 days, read-out: Plant response rating, Pigweed): 80%
pest or weed control at 62 g/ha ([12]; Postemergence, 62 g ai/ha, scale 0 to 100 (0 no effect, 100 complete control), read-out: Plant response rating, Pigweed): 90%
Corn plant response rating (crop injury, 0 = no effect, 100 = complete kill) at 125 g/ha ([13]; 125 g ai/ha, 0 to 100 scale where 0 is no effect and 100 is complete control): 20%
plant injury at 500 g/ha ([13]; 500 g ai/ha, 0 to 100 scale, 0 no effect, 100 complete control, approx. 10 days, read-out: Corn plant response rating): 30%
pest or weed control at 62 g/ha ([14]; 62 g ai/ha, preemergence, scale 0 (no effect) to 100 (complete control), read-out: Velvetleaf plant response rating): 100%
pest or weed control at 125 g/ha ([14]; 125 g ai/ha, preemergence, scale 0 (no effect) to 100 (complete control), read-out: Velvetleaf plant response rating): 100%
pest or weed control at 250 g/ha ([14]; 250 g ai/ha, preemergence, scale 0 (no effect) to 100 (complete control), read-out: Velvetleaf plant response rating): 100%
pest or weed control at 31 g/ha ([14]; Preemergence, 31 g ai/ha, scale 0 to 100, 0 no effect, 100 complete control, read-out: Plant response rating, Velvetleaf): 100%
pest or weed control at 62 g/ha ([15]; 62 g ai/ha, preemergence, scale 0 (no effect) to 100 (complete control), read-out: Pigweed plant response rating): 100%
pest or weed control at 125 g/ha ([15]; 125 g ai/ha, preemergence, scale 0 (no effect) to 100 (complete control), read-out: Pigweed plant response rating): 100%
pest or weed control at 250 g/ha ([15]; 250 g ai/ha, preemergence, scale 0 (no effect) to 100 (complete control), read-out: Pigweed plant response rating): 100%
pest or weed control at 31 g/ha ([15]; Preemergence, 31 g ai/ha, scale 0 to 100, 0 no effect, 100 complete control, read-out: Plant response rating, Pigweed): 100%
